In the supplement of paper PMC10307832:

Columns and labels:
Experiment in all cases: relative viability (nuclei count vs DMSO), 5 days (fraction); higher = more cells survive
IDH-C35 + Olaparib = compound: Cc1ccccc1C(C(=O)NC1CCCCC1)N(C(=O)Cn1ccnc1C)c1cccc(F)c1 [IDH-C35] + O=C(c1cc(Cc2n[nH]c(=O)c3ccccc23)ccc1F)N1CCN(C(=O)C2CC2)CC1 [Olaparib] (partner 8 µM)
How it was run: (§1)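 Values are medians from duplicate plates. Each reflects relative viability, defined as the nuclei count of treated wells over that of vehicle wells. Lung cancer cell lines in 1536-well plates were pin-tool dosed one day after seeding with one drug alone or with a fixed anchor-drug dose plus five library-drug doses (not always all listed) in √10 steps, then fixed, stained and imaged at 4× after 5 days.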

[1] = compound: CC1=C(C(=NN1)C)CC2=C(C3=C(S2)N(C(=O)N(C3=O)C)CC(C)C)C(=O)N4C[C@@H](CO4)O + Cc1nc(Nc2ncc(C(=O)Nc3c(C)cccc3Cl)s2)cc(N2CCN(CCO)CC2)n1 [Dasatinib] (partner 0.075 µM)
How it was run: as §1

[2] = compound: CC1=C(C(=NN1)C)CC2=C(C3=C(S2)N(C(=O)N(C3=O)C)CC(C)C)C(=O)N4C[C@@H](CO4)O + CS(=O)(=O)CCNCc1ccc(-c2ccc3ncnc(Nc4ccc(OCc5cccc(F)c5)c(Cl)c4)c3c2)o1 [Lapatinib] (partner 2 µM)
How it was run: as §1

IDH-C35 + Crizotinib = compound: Cc1ccccc1C(C(=O)NC1CCCCC1)N(C(=O)Cn1ccnc1C)c1cccc(F)c1 [IDH-C35] + C[C@@H](Oc1cc(-c2cnn(C3CCNCC3)c2)cnc1N)c1c(Cl)ccc(F)c1Cl [Crizotinib] (partner 1 µM)
How it was run: as §1

| Cell Line | relative viability (IDH-C35 + Olaparib; first compound 0.08 µM) | relative viability (IDH-C35 + Olaparib; first compound 0.253 µM) | relative viability (IDH-C35 + Olaparib; first compound 0.8 µM) | relative viability (IDH-C35 + Olaparib; first compound 2.53 µM) | relative viability (IDH-C35 + Olaparib; first compound 8 µM) | relative viability ([1]; first compound 0.0025 µM) | relative viability ([1]; first compound 0.007906 µM) | relative viability ([1]; first compound 0.025 µM) | relative viability ([1]; first compound 0.07906 µM) | relative viability ([1]; first compound 0.25 µM) | relative viability ([2]; first compound 0.0025 µM) | relative viability ([2]; first compound 0.007906 µM) | relative viability ([2]; first compound 0.025 µM) | relative viability ([2]; first compound 0.07906 µM) | relative viability ([2]; first compound 0.25 µM) | relative viability (IDH-C35 + Crizotinib; first compound 0.08 µM) | relative viability (IDH-C35 + Crizotinib; first compound 0.253 µM) | relative viability (IDH-C35 + Crizotinib; first compound 0.8 µM) | relative viability (IDH-C35 + Crizotinib; first compound 2.53 µM) | relative viability (IDH-C35 + Crizotinib; first compound 8 µM) |
| --- | --- | --- | --- | --- | --- | --- | --- | --- | --- | --- | --- | --- | --- | --- | --- | --- | --- | --- | --- | --- |
| 201T | 0.762 | 0.824 | 0.799 | 0.81 | 0.841 | 0.579 | 0.624 | 0.6 | 0.59 | 0.551 | 1.05 | 1 | 1.03 | 0.986 | 1.06 | 1.03 | 1.02 | 0.982 | 0.999 | 0.997 |
| A549 | 0.447 | 0.346 | 0.268 | 0.168 | 0.112 |  |  |  |  |  | 1.08 | 1.07 | 1.04 | 0.976 | 1.08 | 0.819 | 0.794 | 0.814 | 0.669 | 0.744 |
| A-427 | 0.698 | 0.637 | 0.732 | 0.742 | 0.77 | 0.746 | 0.84 | 0.727 | 0.733 | 0.764 | 1 | 1.09 | 0.679 | 1.02 | 1.08 | 0.907 | 0.983 | 0.849 | 0.891 | 0.791 |
| ABC-1 | 0.668 | 1.04 | 0.77 | 0.819 | 0.906 |  | 0.346 |  | 0.453 | 0.517 | 1.5 | 0.918 | 1.12 | 0.92 | 0.823 | 0.876 | 1.21 | 1.3 | 1.15 | 1.09 |
| BEN | 1.06 | 1.11 | 1.03 | 0.952 | 0.995 | 0.296 | 0.289 | 0.277 | 0.274 | 0.298 | 0.669 | 0.672 | 0.629 | 0.526 | 0.741 | 0.932 | 0.738 | 0.803 | 0.942 | 0.861 |
| CAL-12T | 0.761 | 0.73 | 0.629 | 0.747 | 0.701 | 0.49 | 0.475 | 0.465 | 0.317 | 0.343 | 0.822 | 0.82 |  | 0.837 | 0.766 | 0.556 | 0.792 | 0.682 | 0.603 | 0.603 |
| COR-L23 | 0.332 | 0.391 | 0.317 | 0.31 | 0.349 | 0.561 | 0.533 | 0.427 | 0.375 | 0.449 | 0.883 | 0.846 | 0.656 | 0.826 | 0.923 | 0.634 | 0.626 | 0.619 | 0.673 | 0.667 |
| COR-L 105 | 0.606 | 0.681 | 0.713 | 0.614 | 0.714 | 0.477 | 0.298 | 0.34 | 0.273 | 0.341 | 0.36 | 0.422 | 0.381 | 0.302 | 0.369 | 0.745 | 0.942 | 0.688 | 0.72 | 0.921 |
| Calu-6 | 0.57 | 0.563 | 0.609 | 0.558 | 0.571 |  |  |  |  |  | 1.13 | 1.06 | 0.947 | 1.04 | 1.19 | 0.765 | 0.745 | 0.804 | 0.833 | 0.742 |
| ChaGo-K-1 | 0.432 | 0.432 | 0.438 | 0.452 | 0.42 | 0.616 | 0.605 | 0.565 | 0.503 | 0.513 |  |  |  |  |  | 1.16 | 1.05 | 1.09 | 0.923 | 1.09 |
| EBC-1 | 0.702 | 0.689 | 0.724 | 0.778 | 0.703 |  |  |  |  |  | 0.201 | 0.204 | 0.217 | 0.203 | 0.204 | 0.181 | 0.187 | 0.168 | 0.194 | 0.161 |
| EKVX | 0.859 | 0.892 | 0.836 | 0.918 | 0.802 | 0.61 | 0.53 | 0.544 | 0.302 | 0.303 | 0.251 | 0.198 | 0.203 | 0.524 | 0.191 | 0.953 | 0.74 | 0.688 | 0.935 | 1.08 |
| EMC-BAC-2 | 0.496 | 0.509 | 0.472 | 0.507 | 0.482 | 0.341 | 0.364 | 0.326 | 0.336 | 0.34 | 0.604 | 0.987 | 0.907 | 0.861 | 0.957 | 0.809 | 0.731 | 0.744 | 0.713 | 0.743 |
| EPLC-272H | 0.836 | 0.866 | 1.24 | 0.904 | 0.603 | 0.527 | 0.376 | 0.418 | 0.24 | 0.305 | 1.08 | 0.736 | 0.907 | 1.19 | 0.937 | 1.09 | 0.805 | 0.855 |  | 1.03 |
| H3255 | 0.554 | 0.576 | 0.579 | 0.63 | 0.553 | 0.42 | 0.319 | 0.283 | 0.343 | 0.347 | 0.24 | 0.244 | 0.25 | 0.241 | 0.223 | 0.898 | 0.9 | 0.897 | 0.773 | 0.848 |
| HARA | 0.835 | 1.03 | 0.742 | 0.725 | 0.845 | 0.243 | 0.263 | 0.28 | 0.231 | 0.235 | 0.664 | 0.81 | 0.637 | 0.671 | 0.696 | 1.02 | 0.986 | 0.997 | 1.09 | 1.05 |
| HCC-15 | 0.712 | 0.733 | 0.724 |  | 0.667 | 0.605 | 0.601 | 0.682 | 0.574 | 0.656 | 0.941 | 0.814 | 0.786 | 0.82 | 0.899 | 0.854 | 0.804 | 0.802 | 0.814 | 0.731 |
